Laboratory results published in PMC9643456, “Matching amino acids membrane preference profile to improve activity of antimicrobial peptides” (Communications Biology, 2022).
Converted amounts (≈) assume the structure as drawn. Like-named read-outs stand apart in the source and are kept apart here. Ends that are not written are not given here.

Tests used:
MDR S. aureus = assay: microbe, parasite or virus in culture; details: CAMHB plus 0.2% bovine serum albumin and 0.01% acetic acid; values marked * in Table 2
How it was run: (§1)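 MIC was read by eye as the lowest peptide concentration leaving no visible turbidity. Peptide and mid-log cells (final 5 × 10^5 CFU/ml) were combined in cation-adjusted Mueller–Hinton broth containing 50 mg/L calcium and 10 mg/L magnesium and incubated 18 h at 37 °C.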

MDR A. baumannii = assay: microbe, parasite or virus in culture
How it was run: as §1

MDR E. faecalis = assay: microbe, parasite or virus in culture; details: CAMHB plus 0.2% bovine serum albumin and 0.01% acetic acid; values marked * in Table 2
How it was run: as §1

MDR P. aeruginosa = assay: microbe, parasite or virus in culture; details: CAMHB plus 0.2% bovine serum albumin and 0.01% acetic acid; values marked * in Table 2
How it was run: as §1

[1] = Maximum soluble concentration / turbidity; type: physicochemical
Protocol: Supplementary Methods Bacteria preparation, Antimicrobial peptides preparation, Minimal-inhibitory-concentration measurements, Hemolysis-activity measurements, Tryptophan fluorescence measurements, Isothermal titration calorimetry measurements, Bacteria membrane ion permeation measurements, Outer-inner membrane permeation, Field-emission scanning electron microscopy and Antimicrobial kinetics were performed as described in Materials and Methods. Liposome (LUV) preparation. Bacterial-membrane-mimic DMPC/DMPG unilamellar vesicles (LUV) and mammalian- membrane-mimic PC/cholesterol vesicles with 100-nm diameters were prepared by extrusion. LiposoFast Liposome Factory Basic unit with stabilizer (Avestin, Ottawa, Canada) was used to extrude liposomes 50 times through a polycarbonate membrane filter (pore diameter, 100 nm; filter diameter, 0.75 inches) (Avestin). […] rac-(1-glycerol)) (sodium salt) (DMPG) (Avanti, Alabama, USA); 1,2-Dimyristoyl-sn-glycero-3-phosphocholine (DMPC) (Avanti); and cholesterol (Sigma, Darmstadt, Germany) were used. For circular dichroism, isothermal titration calorimetry, tryptophan fluorescence, and dynamic light scattering experiments, liposomes were reconstructed and resuspendedwith phosphate-buffered saline (PBS; Welgene Inc, Gyeongsangbuk-do, Korea). For calcein-permeation tests, liposomes were reconstructed with calcein solutions (80 mM, 40 mM, 30 mM, 20 mM, and 10 mM) (Sigma, Darmstadt, Germany), purified with Sephadex-G50 columns (Pharmacia biotech, Stockholm, Sweden), and resuspended with PBS. Maximum-soluble -concentration measurements. […] turbidity with PBS. The lowest concentration of peptide without visible turbidity was determined to be the maximu m soluble concentration. Each experiment was performed at least twice. Circular dichroism (CD) spectrum. DMPC/PG -liposome, PC/cholesterol -liposome, and peptide stock solutions were diluted in PBS. For circular dichroism, PBS with neither liposome nor peptides was also prepared. Liposomes and peptides were mixed to […] Samples were transferred into type J/1 cuvettes (Jasco, Tokyo, Japan). Cuvettes were placed into the J -815 circular -dichroism spectrometer (Jasco, Tokyo, Japan). Measurement parameters were as follows: wavelength, 190 -260 nm; data pitch, 0.2 nm; bandwidth, 1.00 nm; […] Each experiment was performed in triplicate. Data below 197 nm was not analyzed because o f experimental difficulties in obtaining those spectra. Each experiment was performed at least twice. Artificial membrane calcein permeation measurements. Calcein fluorescence was used to measure peptide -induced liposome permeation. Calcein solutions (10 mM, 20 mM, or 60 mM) containing PC/PG liposomes and peptides were diluted in PBS ( ×1, ×2, ×3, ×8). […] Liposome solutions (180 μl) were transferred to wells of black, clear -bottomed 96 -well plates (Costar, New York, USA). Peptide […] Liposome-containing plates and peptide -containing plates were inserted into a Flexstation 3 Multi -Mode Microplate Reader (Molecular Devices, California, USA). Peptide solutions (20 μl) were transferred and mixed with liposome solution automatical ly after 30 sec. […] Measurement parameters were as follows: excitation, 490 nm; emission, 520 nm; temperature, 37 °C. […] was transferred and mixed with the liposome -peptide solu tions automatically after 300 sec to acquire fluorescence at maximum leakage. […] Fluorescence measured between 0 -300 sec after addition of 0 μg/ml peptide was considered the baseline. Each experiment was performed at least twice. Dynamic light scattering (DLS) measurements. Dynamic light scattering was used to measure peptide -induced liposome volume changes. PC/PG -liposome stock solutions and peptides were resuspended in PBS. Liposomes and peptides were mixed to […]

human red blood cells = assay: Hemolytic activity; type: cell-based; details: red cells of human, 18 h
How it was run: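 Peptides (100 μM down to 0.78 μM) were incubated with 4% final human erythrocytes in PBS for 18 h at 37 °C. Supernatant absorbance at 540 nm after centrifugation was scaled to 1% Triton X-100 (100%) and no peptide (0%); melittin served as positive control; triplicate runs.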

A. baumannii strains = assay: microbe, parasite or virus in culture
Protocol: (§2) Twenty-six A. baumannii strains were clinically isolated and gifted to us by the Kyungpook National University School of Medicine. One A. baumannii strain (ATCC 17978) was purchased and gifted to us by Kyungpook National University School of Medicine. One A. baumannii strain and 10 K. pneumoniae strains (NCCP) were purchased from the National Culture Collection for Pathogens.
(§3) To assess antimicrobial activity, the MIC50 and MIC90 were measured using broth microdilution following CLSI guidelines. […] Each experiment was performed in triplicate. Meropenem (Sigma, Darmstadt, Germany) and colistin were used as control antibiotics. Cation-adjusted Mueller–Hinton broth (CAMHB) (Becton, Dickinson and Company, Franklin Lakes, USA) with supplied calcium (50 mg/L) and magnesium (10 mg/L) was used for the CLSI-test condition. Bacteria in midlog phase and peptides were separately diluted in CAMHB. The bacteria and peptide solutions were then mixed in 96-well polyethylene plates (SPL, Gyeonggi-do, Korea) and incubated for 18 h at 37 °C. The final concentration for bacteria was 5 × 10^5 CFU/ml. […] The MIC was defined to be the lowest concentration of peptide without visible turbidity by comparing with control antibiotics with the unaided eye. […] Each experiment was performed in triplicate. MICs in albumin and acetic acid solutions were measured using the same protocol but with 0.2% bovine serum albumin (Bovogen, Keilor, Australia), 0.01% acetic acid (Merck, New Jersey, USA), and CAMHB with both calcium and magnesium. In addition, MICs used in the antibiotic resistance acquisition test, the outer–inner membrane permeation test, and the transmembrane potential test and for FE-SEM were individually determined. The final bacterial concentrations used were as follows: for resistance acquisition, optical density (OD) 0.01; for outer–inner membrane permeability assays (LB), OD 0.1; for the transmembrane potential test, 1 × 10^8 CFU/ml (OD 0.171); […]. Inhibitory activity unidentifiable by direct observation was determined by counting the CFUs. Each experiment was performed at least twice.

K. pneumonia strains = assay: microbe, parasite or virus in culture; details: Klebsiella pneumoniae
Protocol: as §2, §3

For RWLRWWIRV-NH2 [HLWCopW29-1], the “MIC in 0.2% albumin and 0.01% AcOH added CLSI standard condition, MDR S. aureus” value (MDR S. aureus) was 10 µM, the “MIC in 0.2% albumin and 0.01% AcOH added CLSI standard condition, MDR A. baumannii” value (MDR A. baumannii; CAMHB plus 0.2% bovine serum albumin and 0.01% acetic acid, values marked * in Table 2) was 1.25 µM and the “Minimum inhibitory concentrations, MDR A. baumannii” value (MDR A. baumannii; CLSI broth microdilution, CAMHB with 50 mg/L Ca2+, 10 mg/L Mg2+, 5 × 10^5 CFU/ml, 18 h 37 °C, triplicate, strain ATCC BAA-1605) was 2.5 µM. For the same compound, the “MIC in 0.2% albumin and 0.01% AcOH added CLSI standard condition, MDR E. faecalis” value (MDR E. faecalis) was 10 µM, the “MIC in 0.2% albumin and 0.01% AcOH added CLSI standard condition, MDR P. aeruginosa” value (MDR P. aeruginosa) was 20 µM and the “Maximum soluble concentration in PBS” value ([1]; lyophilized peptide reconstructed in PBS at 200-6.25 μM, visible turbidity checked every 12 h for 5 days, at least twice) was over 200 µM. For the same compound, the “Hemolysis percent, 25 μM” value (human red blood cells) was 1.20 ±0.14%, the “Hemolysis percent, 50 μM” value (human red blood cells) was 1.35 ±0.11% and the “Hemolysis percent, 100 μM” value (human red blood cells) was 16.39 ±2.19%.

In the case of `CC(C)C[C@H](NC(=O)[C@H](CCCNC(=N)N)NC(=O)CNC(=O)CNC(=O)[C@@H](N)CCCNC(=N)N)C(=O)N[C@H]1CSSC[C@@H](C(=O)N[C@H](C(=O)NCC(=O)N[C@@H](CCCNC(=N)N)C(N)=O)C(C)C)NC(=O)[C@H](C(C)C)NC(=O)[C@@H]2CSSC[C@H](NC(=O)[C@H](Cc3ccc(O)cc3)NC1=O)C(=O)N[C@@H](CCCNC(=N)N)C(=O)N[C@@H](CCCNC(=N)N)C(=O)N[C@@H](CCCNC(=N)N)C(=O)N[C@@H](Cc1ccccc1)C(=O)N2` [Protegrin-1, reference compound], the solubility ([1]; distilled water) is reported as under 500 µM, the “Hemolysis percent, 25 μM” value (human red blood cells) is reported as 47.83 ±6.23% and the “Hemolysis percent, 50 μM” value (human red blood cells) is reported as 56.75 ±6.02%. The “Hemolysis percent, 100 μM” value (human red blood cells) was 71.66 ±12.24%.

`C[C@@H](O)[C@H]1C(=O)N2C(C(=O)O)=C(S[C@@H]3CN[C@H](C(=O)N(C)C)C3)[C@H](C)[C@H]12` [Meropenem] gave an MIC50 (A. baumannii strains; Acinetobacter baumannii) of at least 20 µM, an MIC90 (A. baumannii strains; Acinetobacter baumannii) of at least 20 µM and an MIC (A. baumannii strains; Acinetobacter baumannii, ATCC17978, read-out: MIC, A. baumannii ATCC 17978) of under 0.31 µM. The MIC (A. baumannii strains; Acinetobacter baumannii, KCCM40203, read-out: MIC, A. baumannii KCCM 40203) was 5 µM (≈ 1.92 µg/mL), the MIC (A. baumannii strains; Acinetobacter baumannii, read-out: MIC, A. baumannii ATCC BBA 1605) was over 20 µM and the MIC (A. baumannii strains; Acinetobacter baumannii, read-out: MIC, A. baumannii Isolated strain 1) was over 20 µM. The MIC (A. baumannii strains; Acinetobacter baumannii, read-out: MIC, A. baumannii Isolated strain 3) was over 20 µM, the MIC (A. baumannii strains; Acinetobacter baumannii, read-out: MIC, A. baumannii Isolated strain 6) was over 20 µM and the MIC (A. baumannii strains; Acinetobacter baumannii, read-out: MIC, A. baumannii Isolated strain 10) was over 20 µM. It also gave an MIC (A. baumannii strains; Acinetobacter baumannii, read-out: MIC, A. baumannii Isolated strain 14) of over 20 µM, an MIC (A. baumannii strains; Acinetobacter baumannii, read-out: MIC, A. baumannii Isolated strain 15) of under 0.31 µM and an MIC (A. baumannii strains; Acinetobacter baumannii, read-out: MIC, A. baumannii Isolated strain 16) of over 20 µM. The MIC (A. baumannii strains; Acinetobacter baumannii, read-out: MIC, A. baumannii Isolated strain 19) was over 20 µM, the MIC (A. baumannii strains; Acinetobacter baumannii, read-out: MIC, A. baumannii Isolated strain 22) was over 20 µM and the MIC (A. baumannii strains; Acinetobacter baumannii, read-out: MIC, A. baumannii Isolated strain 39) was over 20 µM. The MIC (A. baumannii strains; Acinetobacter baumannii, read-out: MIC, A. baumannii Isolated strain 44) was over 20 µM, the MIC (A. baumannii strains; Acinetobacter baumannii, read-out: MIC, A. baumannii Isolated strain 66) was over 20 µM and the MIC (A. baumannii strains; Acinetobacter baumannii, read-out: MIC, A. baumannii Isolated strain 68) was over 20 µM. It also gave an MIC (A. baumannii strains; Acinetobacter baumannii, read-out: MIC, A. baumannii Isolated strain 69) of over 20 µM, an MIC (A. baumannii strains; Acinetobacter baumannii, read-out: MIC, A. baumannii Isolated strain 71) of over 20 µM and an MIC (A. baumannii strains; Acinetobacter baumannii, read-out: MIC, A. baumannii Isolated strain 76) of over 20 µM. For the same compound, the MIC (A. baumannii strains; Acinetobacter baumannii, read-out: MIC, A. baumannii Isolated strain 80) was over 20 µM, the MIC (A. baumannii strains; Acinetobacter baumannii, read-out: MIC, A. baumannii Isolated strain 82) was over 20 µM and the MIC (A. baumannii strains; Acinetobacter baumannii, read-out: MIC, A. baumannii Isolated strain 86) was over 20 µM. The MIC (A. baumannii strains; Acinetobacter baumannii, read-out: MIC, A. baumannii Isolated strain 89) was over 20 µM, the MIC (A. baumannii strains; Acinetobacter baumannii, read-out: MIC, A. baumannii Isolated strain 102) was over 20 µM and the MIC (A. baumannii strains; Acinetobacter baumannii, read-out: MIC, A. baumannii Isolated strain 127) was over 20 µM. For the same compound, the MIC (A. baumannii strains; Acinetobacter baumannii, read-out: MIC, A. baumannii Isolated strain 141) was over 20 µM, the MIC (A. baumannii strains; Acinetobacter baumannii, read-out: MIC, A. baumannii Isolated strain 144) was over 20 µM and the MIC (A. baumannii strains; Acinetobacter baumannii, read-out: MIC, A. baumannii Isolated strain 147) was over 20 µM. The MIC (A. baumannii strains; Acinetobacter baumannii, read-out: MIC, A. baumannii Isolated strain 152) was over 20 µM, the MIC (A. baumannii strains; Acinetobacter baumannii, read-out: MIC, A. baumannii NCCP 14654) was over 20 µM and the “Number of A. baumannii strains at MIC (μM) 0.63” value (A. baumannii strains; of 30 strains) was 0. For the same compound, the “Number of A. baumannii strains at MIC (μM) 1.25” value (A. baumannii strains; of 30 strains) was 0, the “Number of A. baumannii strains at MIC (μM) 2.5” value (A. baumannii strains; of 30 strains) was 0 and the “Number of A. baumannii strains at MIC (μM) 5” value (A. baumannii strains; of 30 strains) was 1. The “Number of A. baumannii strains at MIC (μM) 10” value (A. baumannii strains; of 30 strains) was 0, the “Number of A. baumannii strains at MIC (μM) ≤0.31” value (A. baumannii strains; of 30 strains) was 2 and the “Number of A. baumannii strains at MIC (μM) ≥20” value (A. baumannii strains; of 30 strains) was 27. The MIC (K. pneumonia strains; read-out: MIC, K. pneumonia NCCP 15782) was over 20 µM, the MIC (K. pneumonia strains; read-out: MIC, K. pneumonia NCCP 15864) was over 20 µM and the MIC (K. pneumonia strains; read-out: MIC, K. pneumonia NCCP 15866) was over 20 µM. The MIC (K. pneumonia strains; read-out: MIC, K. pneumonia NCCP 16052) was over 20 µM, the MIC (K. pneumonia strains; read-out: MIC, K. pneumonia NCCP 16124) was over 20 µM and the MIC (K. pneumonia strains; read-out: MIC, K. pneumonia NCCP 16125) was over 20 µM. The MIC (K. pneumonia strains; read-out: MIC, K. pneumonia NCCP 16128) was 20 µM (≈ 7.67 µg/mL), the MIC (K. pneumonia strains; read-out: MIC, K. pneumonia NCCP 16208) was over 20 µM and the MIC (K. pneumonia strains; read-out: MIC, K. pneumonia NCCP 16212) was over 20 µM. It also gave an MIC (K. pneumonia strains; read-out: MIC, K. pneumonia NCCP 16213) of over 20 µM.
